From patent publication US20090192077A1, “North-2'deoxy -methanocarbathymidines as antiviral agents for treatment of kaposi's sarcoma-associated herpes virus” (priority 2005, published 2009)

Assays:
[1] = tested on: KSHV; assay: Anti-KSHV activity in the presence of herpesvirus TK inhibitor 5'-ET; assay type: cell-based, Kaposi's sarcoma-associated herpesvirus; settings: PMA-induced BCBL-1; 1 μM N-MCT or 10 μM CDV with 10, 20 or 50 μM 5'-ET
Experimental: (§1) The cytotoxicity of the compounds was determined simultaneously in uninduced and PMA-induced BCBL-1 cells in microplates, using the XTT assay (Weislow, O, S. et al. 1989 J Natl Cancer Inst 81:577-86).
Exponentially growing BCBL-1 cells or CEM-SS cells (a human T cell line) were washed three times with PBS and cultured in serum free AIM-V w/BSA medium (Invitrogen) at 2×10^5 cells/mL in the absence (unstimulated control) or presence of 20 ng/mL PMA. After 24 hours, unstimulated and PMA-stimulated cells were harvested, washed once with PBS and resuspended in […] radiolabeled compound [^3H]-(N)-MCT, [^3H]-CDV or [^3H]-GCV. Control cultures containing the same concentration of the test compounds but without the radiolabeled formulations were simultaneously set up in an identical manner to assess the cell counts and to evaluate their anti-KSHV activity. In selected experiments, 5′-ET was added at 10˜50 μM to investigate the changes in the anti-KSHV activity and intracellular phosphorylation profiles of the test compounds. The cells were harvested after 24 or 72 hours of incubation.

[2] = tested on: KSHV; assay: Anti-KSHV activity in PMA-induced BCBL-1 cells (virion-associated and cytoplasmic KSHV DNA by PCR); assay type: cell-based, Kaposi's sarcoma-associated herpesvirus; settings: for IC50 / IC90: Human gammaherpesvirus 8, BCBL1, 72 h, PMA-stimulated BCBL-1 cells, KSHV virion production, 3 days; for IC50: read-out: IC50 (μM) (mean ± SD), anti-KSHV activity; for IC90: read-out: IC90 (μM) (mean ± SD), anti-KSHV activity
Experimental: A small fraction (1-3%) of BCBL-1 cells in culture is known to spontaneously undergo lytic cycle and release KSHV virions (Kedes, D. H. et al. 1997 J Clin Invest 99:2082-6; Renne, R. et al. 1996 Nat Med 2:342-6). The antiviral effects of N-MCT and two reference anti-herpetic compounds, CDV and GCV, were determined by the relative reduction in the amounts of cytoplasmic KSHV DNA and newly released KSHV virion-associated DNA in BCBL-1 cells exposed to the test compounds, following lytic induction by phorbol ester, PMA (Renne, R. et al. 1996 Nat Med 2:342-6).
Exponentially growing BCBL-1 cells were washed three times with phosphate-buffered saline (PBS) and resuspended in serum free AIM-V w/BSA medium (Invitrogen, Carlsbad, Calif.) at 2×10^5 cells/mL in the absence (unstimulated control) or presence of 20 ng/mL PMA. After 24 hours, unstimulated and PMA-stimulated BCBL-1 were harvested, washed once with PBS and cultured in serum free AIM-V w/BSA medium at 2×10^5 cells/mL without PMA in the absence or presence of the test compounds at varying concentrations. After 3 days, the cells were counted by the trypan blue dye exclusion method and centrifuged at 1,500 rpm for 5 min. The supernatants were centrifuged at 3,000 rpm for 10 min before subjected to virion-derived KSHV DNA extraction and quantitation, as described below.
Low molecular weight (LMW) DNA was extracted from the pelleted cells according to Hirt's method (Hirt, B. 1967 J Mol Biol 26:365-9) and 0.1 μg of LMW DNA was used for KSHV open reading frame 65 (ORF65) PCR by a primer pair (5′-[…]-3′, SEQ ID NO: 2) and 5′-[…]-3′, SEQ ID NO: 3), generating a 529 bp fragment. The ORF65 PCR reaction mixture, containing 20 mM Tris-HCl (pH 8.4), 50 mM KCl, 2.5 mM MgCl2, 200 μM each dNTP, 0.25 U of Platinum® Taq DNA polymerase (Invitrogen), […] and template DNA, was subjected to 25 cycles of PCR amplification at 94° C. for 60 sec, 60° C. for 60 sec and 72° C. for 60 sec, followed by a final extension at 72° C. for 5 min. In addition, the mitochondrial DNA primer pair (5′-[…]-3′, SEQ ID NO: 4 and 5′-[…]-3′, SEQ ID NO: 5) was used as an internal control for each LMW DNA PCR sample (Yang, Q. et al. 2005 J Virol 79:6122-6133). The amplified products were visualized by electrophoresis on a 1.8% agarose gel.
KSHV virions were pelleted from 300 μL of BCBL-1 culture supernatants by a microcentrifugation at 37,000 g for 2 hours at 4° C. The pelleted virions were resuspended in 150 μL PBS and treated with 20 units of DNase I (Promega, Madison, Wis.) at 37° C. for 30 min to remove cellular DNA from the samples, followed by the incubation with stop solution (20 mM EGTA) at 70° C. for 5 min. Virion-associated KSHV DNA (vDNA) was then extracted by QIAamp DNA extraction kit (QIAGEN, Valencia, Calif.) according to the manufacturer's instructions. One μL of vDNA eluted in 100 μL of elution buffer was subjected to real-time quantitative PCR using a LightCycler® instrument (Roche Applied Science, Indianapolis, Ind.). The 20-μL reaction mixture consisted of the LightCycler FastStart DNA Master SYBR Green I reagents mix (Roche Applied Science), 2.5 mM MgCl2 and 500 nM each of KSHV ORF26 primer pair (5′-[…]-3′, SEQ ID NO: 6 and 5′-[…]-3′, SEQ ID NO: 7). Ten-fold serial dilutions of the plasmid, pKS330Bam (obtained through the AIDS Research and Reference Reagent Program, Division of AIDS, NIAID, NIH, contributed by Drs. Yuan Chang and Patrick Moore), which contained a 330 bp KSHV fragment encoding a portion of the ORF26 gene (Chang, Y. et al. 1994 Science 266:1865-9), were included in each assay as external standards to represent 10 to […] KSHV DNA copies/tube. The number of KSHV vDNA in each supernatant sample was calculated by the LightCycler software version 3.5 (Roche Applied Science), adjusted by the cell count and expressed as copies/10^6 cells.

[3] = tested on: PMA-stimulated BCBL-1 cells; assay: Cytotoxicity by XTT assay in BCBL-1 cells
Experimental: as §1
PMA-stimulated BCBL-1 cells were cultured with increasing concentrations of N-MCT, CDV or GCV and the cell growth was determined by XTT method (Weislow, O, S. et al. 1989 J Natl Cancer Inst 81:577-86) after 72 hours and shown as % no drug control (mean±SD of triplicate wells).

[4] = tested on: HSV-1; settings: cited from earlier work
[5] = tested on: HSV-2; settings: cited from earlier work
[6] = tested on: BCBL-1 cells; assay: Intracellular phosphorylation in KSHV-infected BCBL-1 cells (HPLC of methanolic extracts)
Experimental: Exponentially growing BCBL-1 cells or CEM-SS cells (a human T cell line) were washed three times with PBS and cultured in serum free AIM-V w/BSA medium (Invitrogen) at 2×10^5 cells/mL in the absence (unstimulated control) or presence of 20 ng/mL PMA. After 24 hours, unstimulated and PMA-stimulated cells were harvested, washed once with PBS and resuspended in serum free AIM-V […] radiolabeled compound [^3H]-(N)-MCT, [^3H]-CDV or [^3H]-GCV. Control cultures containing the same concentration of the test compounds but without the radiolabeled formulations were simultaneously set up in an identical manner to assess the cell counts and to evaluate their anti-KSHV activity. In selected experiments, 5′-ET was added at 10˜50 μM to investigate the changes in the anti-KSHV activity and intracellular phosphorylation profiles of the test compounds. The cells were harvested after 24 or 72 hours of incubation.
Upon harvest, the cells were centrifuged at 1,500 rpm for 10 min and washed once with cold PBS. The cell pellets were resuspended in 250 μL of 60% methanol and heated at 95° C. for 3 min, followed by a microcentrifugation at 12,000 g for 10 min at 4° C. The clarified supernatant fractions were evaporated under nitrogen, redissolved in 250 μL of water and subjected to HPLC separation of the phosphorylated metabolites as described in detail elsewhere (Noy, R. et al. 2002 Mol Cancer Ther 1:585-93; Zalah, L. et al. 2002 Antiviral Res 55:63-75). Fractions containing radiolabeled nucleotides were quantitated based on the known specific activity of the parent tritiated nucleoside (Noy, R. et al. 2002 Mol Cancer Ther 1:585-93; Zalah, L. et al. 2002 Antiviral Res 55:63-75).

[7] = target: T1, recombinant KSHV DNA polymerase (rPOL) and polymerase processivity factor (rPPF) (Human herpesvirus 8 type P, UniProt Q2HRD0); settings: read-out: IC50 (μM) (mean ± SD), KSHV rPOL/rPPF-mediated DNA synthesis; 37° C., 60 min
T1 sequence (Q2HRD0 1-1012): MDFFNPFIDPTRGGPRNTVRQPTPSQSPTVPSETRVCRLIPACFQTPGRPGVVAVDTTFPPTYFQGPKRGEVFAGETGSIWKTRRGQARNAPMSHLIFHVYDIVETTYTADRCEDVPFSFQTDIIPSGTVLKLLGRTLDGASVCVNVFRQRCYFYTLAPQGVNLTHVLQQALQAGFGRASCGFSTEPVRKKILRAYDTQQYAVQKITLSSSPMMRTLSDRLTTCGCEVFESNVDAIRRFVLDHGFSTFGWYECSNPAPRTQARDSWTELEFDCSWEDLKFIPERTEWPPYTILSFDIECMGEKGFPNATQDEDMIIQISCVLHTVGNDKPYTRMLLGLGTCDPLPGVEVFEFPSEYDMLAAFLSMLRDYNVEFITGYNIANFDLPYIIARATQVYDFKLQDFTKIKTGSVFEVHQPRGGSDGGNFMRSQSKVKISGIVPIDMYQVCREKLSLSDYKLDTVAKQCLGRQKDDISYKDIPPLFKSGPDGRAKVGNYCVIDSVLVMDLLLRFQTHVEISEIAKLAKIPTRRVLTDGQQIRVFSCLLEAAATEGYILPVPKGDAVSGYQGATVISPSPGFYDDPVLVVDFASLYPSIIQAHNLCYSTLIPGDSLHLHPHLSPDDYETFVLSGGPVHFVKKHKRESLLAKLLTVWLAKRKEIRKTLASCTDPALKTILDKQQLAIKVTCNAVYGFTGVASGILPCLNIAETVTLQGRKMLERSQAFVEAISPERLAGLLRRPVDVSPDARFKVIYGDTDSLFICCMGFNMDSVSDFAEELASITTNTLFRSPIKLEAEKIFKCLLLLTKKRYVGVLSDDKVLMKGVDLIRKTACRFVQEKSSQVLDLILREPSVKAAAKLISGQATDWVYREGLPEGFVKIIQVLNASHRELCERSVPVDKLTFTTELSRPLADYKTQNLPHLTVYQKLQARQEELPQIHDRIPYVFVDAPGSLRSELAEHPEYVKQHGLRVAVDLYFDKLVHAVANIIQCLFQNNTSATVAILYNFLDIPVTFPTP
T1 sequence (F5HID2 1-396 partner): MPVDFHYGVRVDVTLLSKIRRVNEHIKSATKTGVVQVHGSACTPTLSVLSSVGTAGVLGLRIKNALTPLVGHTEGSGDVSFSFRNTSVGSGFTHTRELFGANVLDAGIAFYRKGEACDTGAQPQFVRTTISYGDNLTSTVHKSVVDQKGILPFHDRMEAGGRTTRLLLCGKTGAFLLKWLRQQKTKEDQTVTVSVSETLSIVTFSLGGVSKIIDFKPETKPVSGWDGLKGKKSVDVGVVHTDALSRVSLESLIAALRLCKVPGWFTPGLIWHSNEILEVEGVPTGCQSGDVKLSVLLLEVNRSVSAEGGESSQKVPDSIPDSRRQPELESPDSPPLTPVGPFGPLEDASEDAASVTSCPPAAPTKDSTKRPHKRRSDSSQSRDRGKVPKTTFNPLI
Experimental: KSHV rPOL and rPPF were expressed and purified from the recombinant baculovirus-vector infected Sf9 cells (Dorjsuren, D. et al. 2003 Protein Expr Purif 29:42-50). […] The amounts of newly synthesized DNA, which incorporated DIG-dUTP, were determined by the DIG detection kit (Roche Applied Science) according to the manufacturer's instructions.

Nc1ccn(C[C@@H](CO)OCP(=O)(O)O)c(=O)n1 [CDV, cidofovir]
effect of adding 5'-ET on anti-KSHV activity [1]: not affected | IC50 [2]: 0.42 ± 0.07 µM | IC90 [2]: 4.01 ± 2.05 µM | cytotoxicity at anti-KSHV concentrations ([3]; 0.03 to 10 μM, PMA-induced BCBL-1 cells): without notable cytotoxicity

Nc1nc(O)c2ncn(COC(CO)CO)c2n1 [GCV, ganciclovir]
IC50 [2]: 0.96 ± 0.49 µM | IC90 [2]: 7.11 ± 0.28 µM

Cc1cn([C@H]2C[C@H](O)[C@]3(CO)C[C@H]23)c(=O)[nH]c1=O [N-MCT, North-methanocarbathymidine]
effect of adding 5'-ET on anti-KSHV activity [1]: marked increases in the level of cytoplasmic KSHV DNA | IC50 [2]: 0.08 ± 0.03 µM | IC90 [2]: 0.68 ± 0.1 µM | 50% cytotoxic concentration ([3]; human, 72 h): > 200 µM | antiviral activity against HSV-1 [4]: strong antiviral activity | antiviral activity against HSV-2 [5]: strong antiviral activity

Cc1cn([C@H]2C[C@H](O)[C@]3(COP(=O)(O)OP(=O)(O)O)C[C@H]23)c(=O)[nH]c1=O [N-MCT-DP]
level of phosphorylated metabolite in the presence of 50 μM 5'-ET [6]: substantially decreased

Cc1cn(C2CC(O)C3(COP(=O)(O)O)CC23)c(=O)[nH]c1=O (stereo not shown) [N-MCT-MP]
level of phosphorylated metabolite in the presence of 50 μM 5'-ET [6]: accumulation

Cc1cn([C@@]23C[C@H](O)[C@@H](CO)[C@@H]2C3)c(=O)[nH]c1=O [S-MCT, south-methanocarbathymidine]
antiviral activity against KSHV ([2]; data not shown): no antiviral activity | antiviral activity against HSV-1 [4]: no antiviral activity | antiviral activity against HSV-2 [5]: no antiviral activity

cidofovir diphosphate [CDV-DP]
IC50 [7]: 14.7 ± 2.47 µM

ganciclovir triphosphate [GCV-TP]
IC50 [7]: 24.6 ± 5.6 µM
